Data from US10766864B2, “Morphinan derivatives for the treatment of neuropathic pain” (Nektar Therapeutics, priority 2015, dated 2020).
Like-named read-outs stand apart in the source and are kept apart here.

How the values were obtained:
[1] = target: mu opioid receptor (MOR) (Homo sapiens (Human), UniProt P35372); assay: Competitive radioligand binding at MOR ([3H] Naloxone)
Protocol: (§1) Receptor Binding at MOR and NMDA.
(§2) Affinities of various compounds were measured in vitro using competitive radioligand binding assays. Serial dilutions of test compounds were incubated with membranes prepared from CHO-K1 cells expressing the mu opioid receptor (MOR; for opioid receptor binding) or rat forebrain membranes (for NMDA receptor binding). 2 nM [^3H] Naloxone (MOR) or 0.2 nM [^3H] MK801 (NMDA) were used as the specific, competitive radioligands. 10 uM Naloxone (MOR), or 10 uM MK801 (NMDA) was used to determine non-specific binding. Bound radioactivity was measured using a scintillation counter & IC50 values for test compounds were determined by non-linear regression analysis using a one-site competition model (Graph Pad Prizm). Due to each test compound being solubilized in a buffered system for the assay, the results presented herein reflect the free base activity.

[2] = target: NMDA receptor; assay: Competitive radioligand binding at NMDA receptor ([3H] MK801), rat forebrain membranes; details: 0.2 nM [3H] MK801, reflects free base activity
Protocol: as §1, §2

[3] = membranes from CHO-K1 cells expressing MOR, 2 nM [3H] Naloxone, reflects free base activity, read-out: MOR IC50

| Compound | IC50 [1] | IC50 [2] | IC50 [1, 3] |
| --- | --- | --- | --- |
| CN1CC[C@]23CCCC[C@H]2[C@H]1Cc1ccc(NC(=O)OC(C)(C)C)cc13 [Compound 40, tert-butyl (17-methylmorphinan-3-yl)carbamate] | 0.1 to 1 µM | 1 to 10 µM | – |
| COCCOCCOCCNC(=O)c1ccc2c(c1)[C@@]13CCCC[C@H]1[C@@H](C2)N(C)CC3 [Compound 41, N-{2-[2-(2-methoxyethoxy)ethoxy]ethyl}-17-methylmorphinan-3-carboxamide] | – | > 10 µM | > 1 µM |
| COCCOCCOCCOCCOCCOCC(=O)Nc1ccc2c(c1)[C@@]13CCCC[C@H]1[C@@H](C2)N(C)CC3 [Compound 42, N-(17-methylmorphinan-3-yl)-2,5,8,11,14,17-hexaoxanonadecan-19-amide] | – | > 10 µM | 0.1 to 1 µM |
| CN1CC[C@]23CCCC[C@H]2[C@H]1Cc1ccc(-c2ccncc2)cc13 [Compound 45, 17-methyl-3-(pyridin-4-yl)morphinan] | – | 1 to 10 µM | > 1 µM |
| COCCOCCOc1cncc(Nc2ccc3c(c2)[C@@]24CCCC[C@H]2[C@@H](C3)N(C)CC4)c1 [Compound 48, N-{5-[2-(2-methoxyethoxy)ethoxy]pyridin-3-yl}-17-methylmorphinan-3-amine] | – | > 10 µM | 0.01 to 0.1 µM |
| CN1CC[C@]23CCCC[C@H]2[C@H]1Cc1ccc(Nc2ccncc2)cc13 [Compound 49, 17-methyl-N-(pyridin-4-yl)morphinan-3-amine] | 0.1 to 1 µM | 0.0001 to 0.1 µM | – |
| CN1CC[C@]23CCCC[C@H]2[C@H]1Cc1ccc(Nc2ccncn2)cc13 [Compound 50, 17-methyl-N-(pyrimidin-4-yl)morphinan-3-amine] | 0.1 to 1 µM | 0.0001 to 0.1 µM | – |
| CN1CC[C@]23CCCC[C@H]2[C@H]1Cc1ccc(-c2ccoc2)cc13 [Compound 51, 3-(3-furyl)-17-methylmorphinan] | 0.01 to 0.1 µM | 1 to 10 µM | – |
| CN1CC[C@]23CCCC[C@H]2[C@H]1Cc1ccc(-c2cnc(N)nc2)cc13 [Compound 52, 5-(17-methylmorphinan-3-yl)pyrimidin-2-amine] | – | 1 to 10 µM | > 1 µM |
| CN1CC[C@]23CCCC[C@H]2[C@H]1Cc1ccc(Nc2cncnc2)cc13 [Compound 53, 17-methyl-N-(pyrimidin-5-yl)morphinan-3-amine] | 0.01 to 0.1 µM | > 10 µM | – |
| COCCOCCOCCOCCOCCOc1cncc(Nc2ccc3c(c2)[C@@]24CCCC[C@H]2[C@@H](C3)N(C)CC4)c1 [Compound 54, (4bR,8aR,9R)—N-(5-(2,5,8,11,14-pentaoxahexadecan-16-yloxy)pyridin-3-yl)-11-methyl-6,7,8,8a,9,10-hexahydro-5H-9,4b-(epiminoethano)phenanthren-3-amine] | – | > 10 µM | 0.01 to 0.1 µM |
| CN1CC[C@]23CCCC[C@H]2[C@H]1Cc1ccc(Nc2cnccn2)cc13 [Compound 55, 17-methyl-N-(pyrazin-2-yl)morphinan-3-amine] | 0.0001 to 0.01 µM | > 10 µM | – |
| CN1CC[C@]23CCCC[C@H]2[C@H]1Cc1ccc(Nc2ccnnc2)cc13 [Compound 56, 17-methyl-N-(pyridazin-4-yl)morphinan-3-amine] | 0.1 to 1 µM | 0.0001 to 0.1 µM | – |
| CN1CC[C@]23CCCC[C@H]2[C@H]1Cc1ccc(N(c2ccccn2)c2ccccn2)cc13 [Compound 57, 17-methyl-N,N-di(pyridin-2-yl)morphinan-3-amine] | – | 1 to 10 µM | > 1 µM |
| COCCOCCOc1ccc(Nc2ccc3c(c2)[C@@]24CCCC[C@H]2[C@@H](C3)N(C)CC4)cn1 [Compound 58, N-{6-[2-(2-methoxyethoxy)ethoxy]pyridin-3-yl}-17-methylmorphinan-3-amine] | – | > 10 µM | 0.01 to 0.1 µM |
| COCCNc1ccc2c(c1)[C@@]13CCCC[C@H]1[C@@H](C2)N(C)CC3 [Compound 59, N-(2-methoxyethyl)-17-methylmorphinan-3-amine] | 0.1 to 1 µM | 1 to 10 µM | – |
| CN1CC[C@]23CCCC[C@H]2[C@H]1Cc1ccc(Nc2cccnn2)cc13 [Compound 61, 17-methyl-N-(pyridazin-3-yl)morphinan-3-amine] | 0.1 to 1 µM | 1 to 10 µM | – |
| CN1CC[C@]23CCCC[C@H]2[C@H]1Cc1ccc(-n2ccnc2)cc13 [Compound 62, 3-(1H-imidazol-1-yl)-17-methylmorphinan] | 0.01 to 0.1 µM | 0.1 to 1 µM | – |
| CN1CC[C@]23CCCC[C@H]2[C@H]1Cc1ccc(Nc2ccccn2)cc13 [Compound 63, 17-methyl-N-(pyridin-2-yl)morphinan-3-amine] | 0.1 to 1 µM | 0.1 to 1 µM | – |
| COCCOCCOCCOCCOCCOc1ccc(Nc2ccc3c(c2)[C@@]24CCCC[C@H]2[C@@H](C3)N(C)CC4)cn1 [Compound 64, 17-methyl-N-[6-(2,5,8,11,14-pentaoxahexadecan-16-yloxy)pyridin-3-yl]morphinan-3-amine] | – | > 10 µM | 0.01 to 0.1 µM |
| COCCOCCn1cc(-c2ccc3c(c2)C24CCCCC2C(C3)N(C)CC4)cn1 (centres unmarked) [Compound 65, 3-{1-[2-(2-methoxyethoxy)ethyl]-1H-pyrazol-4-yl}-17-methylmorphinan] | – | > 10 µM | > 1 µM |
| COCCOCCOc1cnccc1Nc1ccc2c(c1)[C@@]13CCCC[C@H]1[C@@H](C2)N(C)CC3 [Compound 66, (4bR,8aR,9R)—N-(3-(2-(2-methoxyethoxy)ethoxy)pyridin-4-yl)-11-methyl-6,7,8,8a,9,10-hexahydro-5H-9,4b-(epiminoethano)phenanthren-3-amine] | – | 1 to 10 µM | 0.1 to 1 µM |
| COCCOCCOc1cc(Nc2ccc3c(c2)[C@@]24CCCC[C@H]2[C@@H](C3)N(C)CC4)ccn1 [Compound 67, N-{2-[2-(2-methoxyethoxy)ethoxy]pyridin-4-yl}-17-methylmorphinan-3-amine] | – | > 10 µM | 0.1 to 1 µM |
| COCCOCCOCC(=O)Nc1nc2cc3c(cc2s1)C[C@@H]1[C@@H]2CCCC[C@]32CCN1C [Compound 68, 2-[2-(2-methoxyethoxy)ethoxy]-N— [(4aR,5R,11bR)-14-methyl-2,3,4,4a,5,6-hexahydro-1H-5,11b-(epiminoethano)phenanthro[3,2-d][1,3]thiazol-9-yl]acetamide] | – | 1 to 10 µM | > 1 µM |
| COCCOCCOCCNc1nc2cc3c(cc2s1)C[C@@H]1[C@@H]2CCCC[C@]32CCN1C [Compound 71, (4aR,5R,11bR)—N-(2-(2-(2-methoxyethoxy)ethoxy)ethyl)-14-methyl-2,3,4,4a,5,6-hexahydro-1H-5,11b-(epiminoethano)phenanthro[3,2-d]thiazol-9-amine] | – | 1 to 10 µM | 0.1 to 1 µM |
| COCCNC(=O)Nc1nc2cc3c(cc2s1)C[C@@H]1[C@@H]2CCCC[C@]32CCN1C [Compound 72, 1-(2-methoxyethyl)-3-((4aR,5R,11bR)-14-methyl-2,3,4,4a,5,6-hexahydro-1H-5,11b-(epiminoethano)phenanthro[3,2-d]thiazol-9-yl)urea] | – | > 10 µM | > 1 µM |
| COCCOc1cc2c(cc1O)[C@@]13CCCCC1[C@@H](C2)N(C)CC3 (some centres unmarked) [Compound 73, 2-(2-methoxyethoxy)-17-methylmorphinan-3-ol] | 0.1 to 1 µM | 1 to 10 µM | – |
| COCCOc1cc(O)cc2c1C[C@@H]1[C@@H]3CCCC[C@]23CCN1C [Compound 74, 1-(2-methoxyethoxy)-17-methylmorphinan-3-ol] | – | > 10 µM | > 1 µM |
